Assay results published in patent publication US6492416B1, “4,5-diaryl-3(2H)-furanone derivatives as cyclooxygenase-2 inhibitors” (Pacific Corporation, priority 1999, dated 2002).

Legend:
[1] = tested on: male SD rat; experiment: Gastric safety studies (Ulcer Index); assay type: in vivo; conditions: daily dose 30 mg/kg body weight oral for 7 days, mean of animals' scores
Procedure: Gastric safety for compounds of this invention was evaluated as follows [Otterness et al., Laboratory Models for Testing Nonsteroidal Anti-inflammatory Drugs in Nonsteroidal Anti-inflammatory Drugs; ed John Wiley & Sons pp 217-227 (1985); Wiley Interscience; New York]: A designated dose of a compound of this invention suspended in 1% methylcellulose solution was administered daily once for 7 days to a male SD rat by oral gavage. The animal was sacrificed and the inner wall of the stomach was examined visually 4 hours after the last administration (the 7th day administration). The gastric safety was assessed by the “Ulcer Index” as defined as the following scores: […]
Score 1: apparently normal stomach.
Score 2: one or more than one ulcer site of pin-point size only.
Score 3: erosions of 2 or fewer than 2, which may be accompanied by ulcers of pin-point size (an erosion is defied by any ulcerative lesion of any dimension greater than 1 mm).
Score 4: erosions more than 2, which may be accompanied by ulcers of pin-point size.
Score 5: erosions accompanied by hemorrhage.
In evaluating the gastric safety of a compound of this invention, usually 8 animals were used. The ulcer index for a compound was calculated by averaging of the ulcer index of each animal. The following Table 5 illustrates gastric safety of some COX-2 selective inhibitors of this invention.

[2] = tested on: ICR mice; experiment: Acetic acid-induced writhing test; assay type: in vivo, mouse; conditions: oral gavage
Procedure: ICR mice weighing 18˜22 g were maintained in a controlled lighting environment (12 hours on/12 hours off) and fasted overnight prior analgesic testing. Mice were administered with a compound of this invention dissolved in 10:10:80 ethanol/Tween 80/saline or vehicle only by oral gavage. The administered vehicle volume was controlled to be 10 ml/kg body weight. One hour later, the animals were treated with 0.2 ml of 1.2% acetic acid by peritoneal injection. 6 minutes later, the number of abdominal constrictions was counted for a 6 minutes period. The antinociceptive activity was expressed as the reduction in the number of abdominal constrictions, compared with that of the placebo group [J. Med. Chem. 39, 4942 (1996)]. ED50 of the mouse writhing test denotes a dose level at which the number of abdominal constrictions is half that of the placebo group. Ten animals per group were used for this study.

| Structure (SMILES) | Ulcer Index (1˜5) [1] | ED50 (mouse writhing) [2] [mg/kg body weight] |
| --- | --- | --- |
| CC1(C)OC(c2ccc(S(C)(=O)=O)cc2)=C(c2cc(F)cc(F)c2)C1=O [Example 11, 4-(3,5-Difluorophenyl)-2,2-dimethyl-5-{4-(methylsulfonyl)phenyl}-3(2H)-furanone] | 1.8 ± 1.0 |  |
| CC1(C)OC(c2ccc(S(N)(=O)=O)cc2)=C(c2cccc(F)c2)C1=O [Example 129, 5-{4-(aminosulfonyl)phenyl}-2,2-dimethyl-4-(3-fluorophenyl)-3(2H)-furanone] |  | 12.3 |
| CC1(C)OC(c2ccc(S(C)(=O)=O)cc2)=C(c2cccc(F)c2)C1=O [Example 4, 2,2-Dimethyl-4-(3-fluorophenyl)-5-{4-(methylsulfonyl)phenyl}-3(2H)-furanone] | 1.8 ± 0.7 | 8.3 |
